Laboratory results published in the supplement of paper PMC10307832.

Tests used:
Test in all cases: relative viability (nuclei count vs DMSO), 5 days (fraction); higher = more cells survive
[1] = compound: CC1=CC(=NN1)NC2=CC(=NC(=N2)/C=C/C3=CC=CC=C3)N4CCN(CC4)C + COc1cccc2cc(-c3nc([C@H]4CC[C@H](C(=O)O)CC4)n4ncnc(N)c34)[nH]c12 [OSI-027] (partner 0.5 µM)
How it was run: (§1)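 Each reported value is a median over duplicate plates. It expresses relative viability: treated-well nuclei count divided by vehicle-well nuclei count. Lung cancer cell lines in 1536-well plates were dosed by pin tool a day after seeding, alone with one drug or with a fixed anchor-drug dose plus five library-drug doses (not always all listed) in √10 steps, and nuclei were counted after 5 days.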

Obatoclax + Decitabine = compound: COC1=CC(c2cc3ccccc3[nH]2)=N/C1=C\c1[nH]c(C)cc1C [Obatoclax] + Nc1ncn([C@H]2C[C@H](O)[C@@H](CO)O2)c(=O)n1 [Decitabine] (partner 2 µM)
How it was run: as §1

[2] = compound: CC1=CC(=NN1)NC2=CC(=NC(=N2)/C=C/C3=CC=CC=C3)N4CCN(CC4)C + O=C(CCCCCCC(=O)Nc1ccccc1)NO [Vorinostat] (partner 1 µM)
How it was run: as §1

Bortezomib + Lapatinib = compound: CC(C)C[C@H](NC(=O)[C@H](Cc1ccccc1)NC(=O)c1cnccn1)B(O)O [Bortezomib] + CS(=O)(=O)CCNCc1ccc(-c2ccc3ncnc(Nc4ccc(OCc5cccc(F)c5)c(Cl)c4)c3c2)o1 [Lapatinib] (partner 2 µM)
How it was run: as §1

Cell Line | relative viability ([1]; first compound 0.08 µM) | relative viability ([1]; first compound 0.253 µM) | relative viability ([1]; first compound 0.8 µM) | relative viability ([1]; first compound 2.53 µM) | relative viability ([1]; first compound 8 µM) | relative viability (Obatoclax + Decitabine; first compound 0.01 µM) | relative viability (Obatoclax + Decitabine; first compound 0.03162 µM) | relative viability (Obatoclax + Decitabine; first compound 0.1 µM) | relative viability (Obatoclax + Decitabine; first compound 0.3162 µM) | relative viability (Obatoclax + Decitabine; first compound 1 µM) | relative viability ([2]; first compound 0.08 µM) | relative viability ([2]; first compound 0.253 µM) | relative viability ([2]; first compound 0.8 µM) | relative viability ([2]; first compound 2.53 µM) | relative viability ([2]; first compound 8 µM) | relative viability (Bortezomib + Lapatinib; first compound 0.0002 µM) | relative viability (Bortezomib + Lapatinib; first compound 0.000632 µM) | relative viability (Bortezomib + Lapatinib; first compound 0.002 µM) | relative viability (Bortezomib + Lapatinib; first compound 0.006325 µM) | relative viability (Bortezomib + Lapatinib; first compound 0.02 µM)
PC-3 [JPC-3] | 0.766 | 0.683 | 0.83 | 0.67 | 0.59 | 0.826 | 0.799 | 0.776 | 0.732 | 0.501 | 0.766 | 0.876 | 0.814 | 0.543 | 0.333 | 0.469 | 0.453 | 0.49 | 0.364 | 0.16
PC-14 | 0.856 | 0.825 | 0.802 | 0.0598 | 0.0365 | 0.209 | 0.17 | 0.147 | 0.0898 | 0.0842 | 0.673 | 0.732 | 0.491 | 0.0475 | 0.041 | 0.323 | 0.356 | 0.354 | 0.239 | 0.0862
RERF-LC-KJ | 0.532 | 0.656 | 0.53 | 0.238 | 0.179 | 0.693 | 0.632 | 0.643 | 0.613 | 0.291 | 0.523 | 0.73 | 0.577 | 0.406 | 0.301 | 0.82 | 0.91 | 0.846 | 0.653 | 0.242
SK-LU-1 | 0.367 | 0.299 | 0.376 | 0.119 | 0.0636 | 0.682 | 0.567 | 0.454 | 0.478 | 0.363 | 0.721 | 0.805 | 0.672 | 0.323 | 0.107 | 0.781 | 0.894 | 0.497 | 0.13 | 0.146
SK-MES-1 | 0.604 | 0.617 | 0.524 | 0.139 | 0.103 | 0.366 | 0.374 | 0.468 | 0.233 | 0.202 | 1.09 | 1.25 | 0.985 | 0.191 | 0.165 | 0.487 | 0.45 | 0.506 | 0.423 | 0.214
SW 1573 | 0.549 | 0.511 | 0.569 | 0.0922 | 0.0676 | 0.432 | 0.434 | 0.437 | 0.139 | 0.194 | 0.703 | 0.751 | 0.572 | 0.156 | 0.102 | 1.03 | 1.09 | 1.14 | 0.308 | 0.0835
UMC-11 | 0.494 | 0.458 | 0.339 | 0.141 | 0.133 | 0.608 | 0.536 | 0.475 | 0.573 | 0.41 | 0.371 | 0.363 | 0.201 | 0.117 | 0.0745 | 0.813 | 0.846 | 0.837 | 0.375 | 0.149
